Assay results from patent publication US20100311714A1, “1H-IMIDAZO[4,5-c]QUINOLINONE COMPOUNDS” (priority 2009, published 2010).
Read-outs that look alike come from different tables or passages of the source.

How the values were obtained:
[1] = Parallel Artificial Membrane Permeability Assay (PAMPA) at pH 6.8; assay type: physicochemical
Method in brief: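 Reported as log Pe, membrane permeability was determined by parallel artificial membrane assay at pH 6.8 per Wohnsland–Faller.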

[2] = biological target: T1, mTOR (Homo sapiens, UniProt P42345); test: Biochemical assay for m-TOR by TR-FRET
T1 construct: purchased Invitrogen Corporation (Carlsbad/Calif., USA) PV4753
Method in brief: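 mTOR (0.5 nM) phosphorylates GFP-4EBP1 (400 nM) with 8 μM ATP at rt in 50 mM HEPES pH 7.5, 10 mM MnCl2, 50 mM NaCl, 1 mM EGTA, 1 mM DTT; compounds 0.003–10 μM final. EDTA stop with Tb-anti-p4EBP1[pT46] antibody (0.5 nM); TR-FRET read after 15 min against no-enzyme and vehicle controls.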

[3] = biological target: T2, PI3K beta (Homo sapiens, UniProt P42338); test: PI3K beta kinase assay (Kinase-Glo luminescence); assay type: biochemical
T2 construct: for the full-length p110-b subunit are generated and fused by overlapping PCR; His tag (C); made in house; host or cells: baculovirus BV949; Tn5 (Trichoplusia ni) or TiniPro insect cells
Method in brief: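 Kinase-Glo luminescence read out ATP left after a 60-min room-temperature reaction, started with ATP (1 μM final) on 25 nM His-tagged p85 iSH2–p110β (BV949) plus 10 μg/mL PI substrate in pH 7.5 Tris buffer. Percent inhibition at eight concentrations was fitted to a four-parameter logistic model for IC50.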

T1 sequence (P42345 1360-2549 limits assumed): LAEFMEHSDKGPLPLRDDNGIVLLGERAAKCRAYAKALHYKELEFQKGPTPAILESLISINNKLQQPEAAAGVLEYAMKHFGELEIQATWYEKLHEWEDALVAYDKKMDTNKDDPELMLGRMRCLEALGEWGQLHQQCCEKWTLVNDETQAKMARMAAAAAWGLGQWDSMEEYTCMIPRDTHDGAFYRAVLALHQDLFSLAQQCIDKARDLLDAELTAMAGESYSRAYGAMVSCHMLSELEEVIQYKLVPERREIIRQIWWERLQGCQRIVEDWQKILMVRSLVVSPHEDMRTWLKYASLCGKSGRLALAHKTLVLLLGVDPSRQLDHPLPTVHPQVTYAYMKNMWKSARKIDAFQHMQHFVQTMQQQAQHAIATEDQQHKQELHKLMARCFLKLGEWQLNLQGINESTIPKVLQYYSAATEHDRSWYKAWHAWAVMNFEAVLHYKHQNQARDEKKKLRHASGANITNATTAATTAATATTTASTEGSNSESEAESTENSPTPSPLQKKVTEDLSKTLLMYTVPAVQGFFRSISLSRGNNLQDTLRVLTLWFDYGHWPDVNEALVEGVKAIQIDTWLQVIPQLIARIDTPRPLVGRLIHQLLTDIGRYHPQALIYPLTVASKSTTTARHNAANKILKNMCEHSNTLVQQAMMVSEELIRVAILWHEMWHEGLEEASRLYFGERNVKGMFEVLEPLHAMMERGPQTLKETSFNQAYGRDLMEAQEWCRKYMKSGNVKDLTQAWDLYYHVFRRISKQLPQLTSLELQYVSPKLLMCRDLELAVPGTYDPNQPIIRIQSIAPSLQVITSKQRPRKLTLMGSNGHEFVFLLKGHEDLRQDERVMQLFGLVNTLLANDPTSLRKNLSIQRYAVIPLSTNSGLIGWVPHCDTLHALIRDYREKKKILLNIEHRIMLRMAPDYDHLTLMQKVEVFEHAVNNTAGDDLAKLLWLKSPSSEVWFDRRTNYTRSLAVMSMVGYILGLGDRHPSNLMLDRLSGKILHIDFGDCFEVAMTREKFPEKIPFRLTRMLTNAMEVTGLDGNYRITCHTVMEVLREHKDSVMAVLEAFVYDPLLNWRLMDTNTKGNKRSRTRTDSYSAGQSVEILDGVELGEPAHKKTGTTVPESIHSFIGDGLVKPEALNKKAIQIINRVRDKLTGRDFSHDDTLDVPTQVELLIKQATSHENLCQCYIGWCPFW
T2 sequence (P42338 with tags, fused parts or gaps limits assumed): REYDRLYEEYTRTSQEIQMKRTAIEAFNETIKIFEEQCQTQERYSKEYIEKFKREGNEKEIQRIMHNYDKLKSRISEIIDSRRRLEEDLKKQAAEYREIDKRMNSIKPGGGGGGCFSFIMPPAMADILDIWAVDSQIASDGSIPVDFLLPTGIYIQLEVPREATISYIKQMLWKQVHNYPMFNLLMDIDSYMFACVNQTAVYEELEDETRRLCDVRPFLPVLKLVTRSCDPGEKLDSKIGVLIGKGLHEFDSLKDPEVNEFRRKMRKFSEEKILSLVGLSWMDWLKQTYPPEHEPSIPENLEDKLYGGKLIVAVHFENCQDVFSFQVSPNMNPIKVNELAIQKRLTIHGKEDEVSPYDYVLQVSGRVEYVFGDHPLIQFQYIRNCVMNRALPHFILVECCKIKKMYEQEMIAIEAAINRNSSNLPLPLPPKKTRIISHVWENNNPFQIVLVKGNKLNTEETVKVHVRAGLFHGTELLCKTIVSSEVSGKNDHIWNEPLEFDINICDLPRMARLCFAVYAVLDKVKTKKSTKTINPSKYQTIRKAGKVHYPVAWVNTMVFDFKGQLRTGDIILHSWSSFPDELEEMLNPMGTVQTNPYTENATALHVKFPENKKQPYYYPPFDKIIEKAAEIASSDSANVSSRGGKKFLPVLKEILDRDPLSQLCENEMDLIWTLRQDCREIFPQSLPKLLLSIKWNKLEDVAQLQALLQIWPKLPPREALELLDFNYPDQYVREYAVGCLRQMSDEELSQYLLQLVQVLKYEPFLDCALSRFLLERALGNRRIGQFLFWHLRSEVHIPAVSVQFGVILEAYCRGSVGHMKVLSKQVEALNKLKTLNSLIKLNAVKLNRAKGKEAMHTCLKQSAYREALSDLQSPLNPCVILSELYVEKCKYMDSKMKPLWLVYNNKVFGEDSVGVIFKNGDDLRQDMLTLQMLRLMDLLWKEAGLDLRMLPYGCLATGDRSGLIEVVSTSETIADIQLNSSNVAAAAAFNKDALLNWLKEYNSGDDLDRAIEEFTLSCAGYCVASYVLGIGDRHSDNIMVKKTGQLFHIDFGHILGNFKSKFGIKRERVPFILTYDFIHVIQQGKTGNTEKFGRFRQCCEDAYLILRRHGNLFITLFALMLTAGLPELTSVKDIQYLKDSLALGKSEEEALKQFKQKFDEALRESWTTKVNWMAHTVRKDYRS

| SMILES | HT-Perm logPe pH6.8 [1] | IC50 ([2]; read-out: EPK_mTOR/IC50) [nM] | IC50 ([3]; read-out: EPK_PI3Kbeta/IC50) [nM] | HT-perm/logPe pH6.8 [1] | IC50 ([2]; read-out: mTOR/IC50) [nM] | IC50 ([3]; read-out: PI3Kbeta/IC50) [nM] |
| --- | --- | --- | --- | --- | --- | --- |
| CNc1ncc(-c2ccc3ncc4c(c3c2)n(-c2ccc(N3CC(F)(F)C3)nc2C)c(=O)n4C)cn1 [Example 24.1, 1-[6-(3,3-Difluoro-azetidin-1-yl)-2-methyl-pyridin-3-yl]-3-methyl-8-(2-methylamino-pyrimidin-5-yl)-1,3-dihydro-imidazo[4,5-c]quinolin-2-one] | −3.9 | 21 | 1010 |  |  |  |
| CCNc1cc(-c2ccc3ncc4c(c3c2)n(-c2ccc(N3CC(O)C3)nc2C)c(=O)n4C)cnc1CO [Example 29.2, 8-(5-Ethylamino-6-hydroxymethyl-pyridin-3-yl)-1-[6-(3-hydroxy-azetidin-1-yl)-2-methyl-pyridin-3-yl]-3-methyl-1,3-dihydro-imidazo[4,5-c]quinolin-2-one] | −7.1 | 5 | 677 |  |  |  |
| CCOc1cc(-c2ccc3ncc4c(c3c2)n(-c2ccc(F)nc2C)c(=O)n4C)cnc1COC [Example 7.5, 8-(5-Ethoxy-6-methoxymethyl-pyridin-3-yl)-1-(6-fluoro-2-methyl-pyridin-3-yl)-3-methyl-1,3-dihydro-imidazo[4,5-c]quinolin-2-one] | −3.7 | 88 | 152 |  |  |  |
| CCOc1cc(-c2ccc3ncc4c(c3c2)n(-c2cccnc2C)c(=O)n4C)cnc1COC [Example 2.28, 8-(5-Ethoxy-6-methoxymethyl-pyridin-3-yl)-3-methyl-1-(2-methyl-pyridin-3-yl)-1,3-dihydro-imidazo[4,5-c]quinolin-2-one] | −4.3 | 58 | 563 |  |  |  |
| CCNc1cc(-c2ccc3ncc4c(c3c2)n(-c2cccnc2C)c(=O)n4C)cnc1CO [Example 2.31, 8-(5-Ethylamino-6-hydroxymethyl-pyridin-3-yl)-3-methyl-1-(2-methyl-pyridin-3-yl)-1,3-dihydro-imidazo[4,5-c]quinolin-2-one] | −5.8 | < 3 | 67 |  |  |  |
| CNc1ncc(-c2ccc3ncc4c(c3c2)n(-c2ccc(N3CC(O)C3)nc2C)c(=O)n4C)cc1F [Example 29.3, 8-(5-Fluoro-6-methylamino-pyridin-3-yl)-1-[6-(3-hydroxy-azetidin-1-yl)-2-methyl-pyridin-3-yl]-3-methyl-1,3-dihydro-imidazo[4,5-c]quinolin-2-one] | −5.1 | 8 | 301 |  |  |  |
| Cc1nc(N2CCC2)ccc1-n1c(=O)n(C)c2cnc3ccc(-c4cncc(OC(C)C)c4)cc3c21 [Example 23.9, 1-(6-Azetidin-1-yl-2-methyl-pyridin-3-yl)-8-(5-isopropoxy-pyridin-3-yl)-3-methyl-1,3-dihydro-imidazo[4,5-c]quinolin-2-one] | −3.7 | 37 | 171 |  |  |  |
| Cc1nc(C(C)(C)O)ccc1-n1c(=O)n(C)c2cnc3ccc(-c4cncc(C(C)(C)C#N)c4)cc3c21 [Example 31.6, 2-(5-{1-[6-(1-Hydroxy-1-methyl-ethyl)-2-methyl-pyridin-3-yl]-3-methyl-2-oxo-2,3-dihydro-1H-imidazo[4,5-c]quinolin-8-yl}-pyridin-3-yl)-2-methyl-propionitrile] | −4.4 | 95 | 25 |  |  |  |
| COC1CCN(c2ccc(-n3c(=O)n(C)c4cnc5ccc(-c6cncc(C(C)(C)O)c6)cc5c43)c(C)n2)C1 (stereo not drawn) [Example 28.1, 8-[5-(1-Hydroxy-1-methyl-ethyl)-pyridin-3-yl]-1-[6-(3-methoxy-pyrrolidin-1-yl)-2-methyl-pyridin-3-yl]-3-methyl-1,3-dihydro-imidazo[4,5-c]quinolin-2-one] | −5.1 | 22 | 48 |  |  |  |
| CCNc1ncc(-c2ccc3ncc4c(c3c2)n(-c2ccc(N3CC[C@@H](O)C3)nc2C)c(=O)n4C)cc1C(F)(F)F [Example 34.2, 8-(6-Ethylamino-5-trifluoromethyl-pyridin-3-yl)-1-[6-((R)-3-hydroxy-pyrrolidin-1-yl)-2-methyl-pyridin-3-yl]-3-methyl-1,3-dihydro-imidazo[4,5-c]quinolin-2-one] | −3.9 | 36 | 134 |  |  |  |
| COc1cc(-c2ccc3ncc4c(c3c2)n(-c2ccc(N3CC(O)C3)nc2C)c(=O)n4C)cnc1CO [Example 29.5, 1-[6-(3-Hydroxy-azetidin-1-yl)-2-methyl-pyridin-3-yl]-8-(6-hydroxymethyl-5-methoxy-pyridin-3-yl)-3-methyl-1,3-dihydro-imidazo[4,5-c]quinolin-2-one] | −7.8 | 61 | 277 |  |  |  |
| Cc1ncccc1-n1c(=O)n(C)c2cnc3ccc(-c4cncc(N5CCC5)c4)cc3c21 [Example 2.29, 8-(5-Azetidin-1-yl-pyridin-3-yl)-3-methyl-1-(2-methyl-pyridin-3-yl)-1,3-dihydro-imidazo[4,5-c]quinolin-2-one] | −4.3 | 43 | 782 |  |  |  |
| CNc1ccc(-c2ccc3ncc4c(c3c2)n(-c2cccnc2C)c(=O)n4C)cn1 [Example 2.13, 3-Methyl-8-(6-methylamino-pyridin-3-yl)-1-(2-methyl-pyridin-3-yl)-1,3-dihydro-imidazo[4,5-c]quinolin-2-one] |  |  |  | −4.7 | 19 | 226 |
| Cc1nc(N2CCN(C)C(=O)C2)ccc1-n1c(=O)n(C)c2cnc3ccc(-c4cnc(N)c(C(F)(F)F)c4)cc3c21 [Example 21.1, 8-(6-Amino-5-trifluoromethyl-pyridin-3-yl)-3-methyl-1-[2-methyl-6-(4-methyl-3-oxo-piperazin-1-yl)-pyridin-3-yl]-1,3-dihydro-imidazo[4,5-c]quinolin-2-one] | −6.1 | < 3 | 9 |  |  |  |
| CCOc1ccc(-c2ccc3ncc4c(c3c2)n(-c2cccnc2F)c(=O)n4C)cn1 [Example 6.1, 8-(6-Ethoxy-pyridin-3-yl)-1-(2-fluoro-pyridin-3-yl)-3-methyl-1,3-dihydro-imidazo[4,5-c]quinolin-2-one] |  |  |  | −3.9 | 107 | 223 |
| Cc1nc(N2CCC2)ccc1-n1c(=O)n(C)c2cnc3ccc(-c4cncc(C(C)(C)O)c4)cc3c21 [Example 23.3, 1-(6-Azetidin-1-yl-2-methyl-pyridin-3-yl)-8-[5-(1-hydroxy-1-methyl-ethyl)-pyridin-3-yl]-3-methyl-1,3-dihydro-imidazo[4,5-c]quinolin-2-one] | −5 | 7 | 19 |  |  |  |
| Cc1nc(F)ccc1-n1c(=O)n(C)c2cnc3ccc(-c4cnc5c(ccn5C)c4)cc3c21 [Example 7.2, 1-(6-Fluoro-2-methyl-pyridin-3-yl)-3-methyl-8-(1-methyl-1H-pyrrolo[2,3-b]pyridin-5-yl)-1,3-dihydro-imidazo[4,5-c]quinolin-2-one] |  |  |  | −3.7 | 17 | 309 |
| Cc1ncccc1-n1c(=O)n(C)c2cnc3ccc(-c4cnc(N)c(C(F)(F)F)c4)cc3c21 [Example 2.11, 8-(6-Amino-5-trifluoromethyl-pyridin-3-yl)-3-methyl-1-(2-methyl-pyridin-3-yl)-1,3-dihydro-imidazo[4,5-c]quinolin-2-one] |  |  |  | −4.0 | 16 | 14 |
| Cc1nc(N2CCCC2)ccc1-n1c(=O)n(C)c2cnc3ccc(-c4cncc(C(C)(C)O)c4)cc3c21 [Example 25.3, 8-[5-(1-Hydroxy-1-methyl-ethyl)-pyridin-3-yl]-3-methyl-1-(2-methyl-6-pyrrolidin-1-yl-pyridin-3-yl)-1,3-dihydro-imidazo[4,5-c]quinolin-2-one] | −4.5 | 12 | < 3 |  |  |  |
| Cn1c(=O)n(-c2cccnc2F)c2c3cc(-c4cnc(N)c(C(F)(F)F)c4)ccc3ncc21 [Example 6.2, 8-(6-Amino-5-trifluoromethyl-pyridin-3-yl)-1-(2-fluoro-pyridin-3-yl)-3-methyl-1,3-dihydro-imidazo[4,5-c]quinolin-2-one] |  |  |  | −3.8 | 15 | 7 |
| CNc1cncc(-c2ccc3ncc4c(c3c2)n(-c2cccnc2C)c(=O)n4C)c1 [Example 2.26, 3-Methyl-8-(5-methylamino-pyridin-3-yl)-1-(2-methyl-pyridin-3-yl)-1,3-dihydro-imidazo[4,5-c]quinolin-2-one] | −5.3 | 22 | 31 |  |  |  |
| Cc1nc(F)ccc1-n1c(=O)n(C)c2cnc3ccc(-c4cnc(N)c(C(F)(F)F)c4)cc3c21 [Example 7.1, 8-(6-Amino-5-trifluoromethyl-pyridin-3-yl)-1-(6-fluoro-2-methyl-pyridin-3-yl)-3-methyl-1,3-dihydro-imidazo[4,5-c]quinolin-2-one] |  |  |  | −3.8 | 8 | 7 |
| COc1ccc(-c2ccc3ncc4c(c3c2)n(-c2cccnc2C)c(=O)n4C)cn1 [Example 2.12, 8-(6-Methoxy-pyridin-3-yl)-3-methyl-1-(2-methyl-pyridin-3-yl)-1,3-dihydro-imidazo[4,5-c]quinolin-2-one] |  |  |  | −3.3 | 74 | 132 |
